In this assay the target is T1, human liver GK (Homo sapiens, UniProt P35557).
T1 construct: GST (glutathione S-transferase) (N); made in house; host or cells: E. coli
T1 sequence (P35557 1-466 isoform P35557-2): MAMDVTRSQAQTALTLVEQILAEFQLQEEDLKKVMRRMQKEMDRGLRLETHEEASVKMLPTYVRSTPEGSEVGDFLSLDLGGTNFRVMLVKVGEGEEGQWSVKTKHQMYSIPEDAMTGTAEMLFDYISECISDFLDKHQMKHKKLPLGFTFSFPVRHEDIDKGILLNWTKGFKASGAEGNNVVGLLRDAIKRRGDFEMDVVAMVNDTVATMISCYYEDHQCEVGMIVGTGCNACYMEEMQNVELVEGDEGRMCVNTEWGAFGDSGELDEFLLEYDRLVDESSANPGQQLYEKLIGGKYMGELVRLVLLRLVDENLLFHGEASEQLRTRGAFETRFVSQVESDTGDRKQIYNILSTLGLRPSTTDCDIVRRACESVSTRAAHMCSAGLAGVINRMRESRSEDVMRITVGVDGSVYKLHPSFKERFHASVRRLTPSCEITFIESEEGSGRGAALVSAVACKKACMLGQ
In words: GK activation test. The format is biochemical. To be noted: test compound concentration needed to activate 50% of maximum activation ability; 4 mM 14C-labeled glucose, 2 mM ATP, room temperature, 20 minutes. Summed up:
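GST-tagged human liver GK from E. coli (0.24 μg/well) with 4 mM 14C-glucose, 2 mM ATP in Hepes-KOH pH 7.1, KCl, MgCl2, DTT, 1% DMSO, 20 min room temperature. Labeled glucose 6-phosphate captured on anion resin, eluted and counted. EC50 = concentration giving half of maximal activation.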

Drawing on patent US8822503B2, “2-pyridone compounds” (Taisho Pharmaceutical Co., Ltd, priority 2009, dated 2014), this text covers EC50 for 12 molecules.

Molecules are shown by their SMILES.

As to `O=C1CC[C@H](/C=C(/c2ccc(Cl)c(=O)[nH]2)c2ccc(C(F)(F)F)cc2F)N1` [Example 4-262, 3-Chloro-6-{(E)-1-[2-fluoro-4-(trifluoromethyl)phenyl]-2-[(2R)-5-oxopyrrolidin-2-yl]ethenyl}pyridin-2(1H)-one], the EC50 lay within 500 to 3000 nM. For `CC1(C)CCc2cc(/C(=C\[C@H]3CCC(=O)N3)c3ccc(Cl)c(=O)[nH]3)ccc2O1` [Example 4-263, 3-Chloro-6-{(E)-1-(2,2-dimethyl-3,4-dihydro-2H-chromen-6-yl)-2-[(2R)-5-oxopyrrolidin-2-yl]ethenyl}pyridin-2(1H)-one], the EC50 lay in the range of 500 to 3000 nM. In the case of `COCCCc1ccc(/C(=C\[C@H]2CCC(=O)N2)c2ccc(Cl)c(=O)[nH]2)cc1` [Example 4-264, 3-Chloro-6-{(E)-1-[4-(3-methoxypropyl)phenyl]-2-[(2R)-5-oxopyrrolidin-2-yl]ethenyl}pyridin-2(1H)-one] it was 500 to 3000 nM; in that of `Cc1cc(/C(=C\[C@H]2CCC(=O)N2)c2ccc(C3CC3)c(=O)[nH]2)ccc1C(F)(F)F` [Example 4-265, 3-Cyclopropyl-6-{(E)-1-[3-methyl-4-(trifluoromethyl)phenyl]-2-[(2R)-5-oxopyrrolidin-2-yl]ethenyl}pyridin-2(1H)-one], 10 to 500 nM. The molecule `O=C1CC[C@H](/C=C(/c2ccc(C3CC3)c(=O)[nH]2)c2ccc(Cl)cc2F)N1` [Example 4-266, 6-{(E)-1-(4-Chloro-2-fluorophenyl)-2-[(2R)-5-oxopyrrolidin-2-yl]ethenyl}-3-cyclopropylpyridin-2(1H)-one] had an EC50 of 10 to 500 nM. As for `O=C1CC[C@H](/C=C(/c2ccc(C3CC3)c(=O)[nH]2)c2ccc(C(F)(F)F)cc2F)N1` [Example 4-267, 3-Cyclopropyl-6-{(E)-1-[2-fluoro-4-(trifluoromethyl)phenyl]-2-[(2R)-5-oxopyrrolidin-2-yl]ethenyl}pyridin-2(1H)-one], the EC50 lay in the range of 10 to 500 nM. As for `O=C1CC[C@H](/C=C(\c2ccc(C3CC3)cc2)c2ccc(C3CC3)c(=O)[nH]2)N1` [Example 4-268, 3-Cyclopropyl-6-{(E)-1-(4-cyclopropylphenyl)-2-[(2R)-5-oxopyrrolidin-2-yl]ethenyl}pyridin-2(1H)-one], the figure is 10 to 500 nM; as for `O=C1CC[C@H](/C=C(\c2ccc(OC3CC3)c(Cl)c2)c2ccc(C3CC3)c(=O)[nH]2)N1` [Example 4-269, 6-{(E)-1-[3-Chloro-4-(cyclopropyloxy)phenyl]-2-[(2R)-5-oxopyrrolidin-2-yl]ethenyl}-3-cyclopropylpyridin-2(1H)-one], 10 to 500 nM. `O=C1CC[C@H](/C=C(\c2ccc(OCC(F)(F)F)c(Cl)c2)c2ccc(C3CC3)c(=O)[nH]2)N1` [Example 4-270, 6-{(E)-1-[3-Chloro-4-(2,2,2-trifluoroethoxy)phenyl]-2-[(2R)-5-oxopyrrolidin-2-yl]ethenyl}-3-cyclopropylpyridin-2(1H)-one] came in with an EC50 of 10 to 500 nM. As for `CCc1ccc(/C(=C\[C@H]2CCC(=O)N2)c2ccc(C3CC3)c(=O)[nH]2)cc1Cl` [Example 4-271, 6-{(E)-1-(3-Chloro-4-ethylphenyl)-2-[(2R)-5-oxopyrrolidin-2-yl]ethenyl}-3-cyclopropylpyridin-2(1H)-one], the figure is 10 to 500 nM; as for `O=C1CC[C@H](/C=C(\c2ccc(CC(F)(F)F)cc2)c2ccc(C3CC3)c(=O)[nH]2)N1` [Example 4-272, 3-Cyclopropyl-6-{(E)-2-[(2R)-5-oxopyrrolidin-2-yl]-1-[4-(2,2,2-trifluoroethyl)phenyl]ethenyl}pyridin-2(1H)-one], 10 to 500 nM.

With `O=C1CC[C@H](/C=C(\c2ccc(C(F)F)cc2)c2ccc(C3CC3)c(=O)[nH]2)N1` [Example 4-273, 3-Cyclopropyl-6-{(E)-1-[4-(difluoromethyl)phenyl]-2-[(2R)-5-oxopyrrolidin-2-yl]ethenyl}pyridin-2(1H)-one], the EC50 fell in the range of 10 to 500 nM.

One may read the EC50 as the concentration needed to bring the measured effect to its halfway point.
